The test system of data set [1] is larvae of the mustard beetle (Phaedon cochleariae). Put plainly: Phaedon larvae test. In kind it is in vivo. The note with it: 168 h, 100 ppm active compound, cabbage leaves (Brassica oleracea) dipped, after 7 d, read-out: Kill rate in % after 7 d. On the procedure:
(§1) Phaedon Larvae Test • Solvent: 7 parts by weight of dimethylformamide • Emulsifier: 2 parts by weight of alkylaryl polyglycol ether To produce a suitable preparation of active compound, 1 part by weight of active compound is mixed with the stated amounts of solvent and emulsifier, and the concentrate is diluted with emulsifier-containing water to the desired concentration. Cabbage leaves (Brassica oleracea) are treated by being dipped into the preparation of active compound of the desired concentration and are populated with larvae of the mustard beetle (Phaedon cochleariae) while the leaves are still moist. After the desired period of time, the kill in % is determined. 100% means that all beetle larvae have been killed; 0% means that none of the beetle larvae have been killed. In this test, for example, the following compounds of the preparation examples show good activity: […]

Data set [2] can be described thus: log P determination by HPLC on reversed-phase column (EEC Directive 79/831 Annex V.A8). The data set is classed as physicochemical. How it is done: The log P values given in the preparation examples and tables above are determined in accordance with EEC Directive 79/831 Annex V.A8 by HPLC (High Performance Liquid Chromatography) on a reversed-phase column (C 18). Temperature: 43° C. In the acidic range, determination is carried out at pH 2.3 using the mobile phases 0.1% aqueous phosphoric acid and acetonitrile; linear gradient from 10% acetonitrile to 90% acetonitrile (in the tables marked with a)). In the neutral range, determination is carried out at pH 7.5 using the mobile phases 0.01 molar aqueous phosphate buffer solution and acetonitrile; linear gradient from 10% acetonitrile to 90% acetonitrile (in the tables marked with b)). Calibration is carried out using unbranched alkan-2-ones (of 3 to 16 carbon atoms) with known lopP values (determination of the log P values by the retention times using linear interpolation between two successive alkanones).

Data set [3] deals with caterpillars of the army worm (Spodoptera frugiperda). Put plainly: Spodoptera frugiperda test. The data set is classed as in vivo. The note with it: 168 h, 100 ppm active compound, cabbage leaves (Brassica oleracea) dipped, after 7 d, read-out: Kill rate in % after 7 d. How it is done: as §1, with “Spodoptera frugiperda” for “Phaedon Larvae”, “caterpillars” for “larvae”, “army worm (Spodoptera frugiperda)” for “mustard beetle (Phaedon cochleariae)”, “caterpillars” for “beetle larvae”

In data set [4] the test system is greenhouse red spider mite (Tetranychus urticae). The data set is described as follows: Tetranychus test (OP-resistant/dip treatment). The note with it: 168 h, 100 ppm active compound, infested bean plants (Phaseolus vulgaris) dipped, OP-resistant, after 7 d, read-out: Kill rate in % after 7 d. In kind it is in vivo. How it is done:
Tetranychus Test (OP-Resistant/Dip Treatment)
• Solvent: 7 parts by weight of dimethylformamide • Emulsifier: 2 parts by weight of alkylaryl polyglycol ether
To produce a suitable preparation of active compound, 1 part by weight of active compound is mixed with the stated amounts of solvent and emulsifier, and the concentrate is diluted with emulsifier-containing water to the desired concentration.
Bean plants (Phaseolus vulgaris) which are heavily infested by all stages of the greenhouse red spider mite (Tetranychus urticae) are treated by being dipped into a preparation of active compound of the desired concentration.
After the desired period of time, the activity in % is determined. 100% means that all spider mites have been killed; 0% means that none of the spider mites have been killed.
In this test, for example, the following compounds of the preparation examples show good efficacy: […]

Data set [5] relates to caterpillars of the cotton bollworm (Heliothis armigera). The data set is described as follows: Heliothis armigera test. The data set is classed as in vivo. The note with it: Helicoverpa armigera, 168 h; 100 ppm active compound; soybean shoots (Glycine max) dipped; after 7 d; read-out: Kill rate in % after 7 d. How it is done: as §1, with “Heliothis armigera” for “Phaedon Larvae”, “Soybean shoots (Glycine max)” for “Cabbage leaves (Brassica oleracea)”, “caterpillars” for “larvae”, “cotton bollworm (Heliothis armigera)” for “mustard beetle (Phaedon cochleariae)”, “caterpillars” for “beetle larvae”

Data set [6] relates to caterpillars of the diamondback moth (Plutella xylostella). The data set is described as follows: Plutella test. In kind it is in vivo. The note with it: 100 ppm active compound, cabbage leaves (Brassica oleracea) dipped. On the procedure:
as §1, with “Plutella” for “Phaedon Larvae”, “caterpillars” for “larvae”, “diamondback moth (Plutella xylostella)” for “mustard beetle (Phaedon cochleariae)”, “caterpillars” for “beetle larvae”

Where [7] appears, read: reversed-phase C18 HPLC column; acidic range, pH 2.3, 0.1% aqueous phosphoric acid/acetonitrile, 43° C.; marked a) in tables, read-out: log P (pH 2.3).
[8] abbreviates: reversed-phase C18 HPLC column; neutral range, pH 7.5, 0.01 molar aqueous phosphate buffer/acetonitrile, 43° C.; marked b) in tables, read-out: log P (pH 7.5).

Read-outs that look alike come from different tables or passages of the source.

As for `Cc1ccccc1C1=NC(c2ccc(-c3ccc(-c4nc(C(C)(C)C)no4)cc3)cc2)CC1` (stereo not drawn) [Example 12], the pest or weed control at 100 ppm in data set [1] was determined as 100%; in data set [3], 100%; in data set [4], 98%; in data set [5], 100%. The chromatographic logP in data set [2] (setting [7]) was determined as 4.18.

On to `CCOc1ccc(-c2ccc(-c3ccc(C4CCC(c5c(F)cccc5F)=N4)cc3)cc2)s1` (stereo not drawn) [Example 1, 5-(2,6-difluorophenyl)-2-[4′-(5-ethoxy-2-thienyl)-1,1′-biphenyl-4-yl]-3,4-dihydro-2H-pyrrole], for which the pest or weed control at 100 ppm in data set [1] was found to be 100%; in data set [3], 100%; in data set [4], 95%; in data set [5], 100%. Besides, the figures for the chromatographic logP in data set [2] (setting [7]) and in data set [2] (setting [8]) were 4.88 and 5.84, respectively. For the same molecule, the “Kill rate in % after 7 d” value in data set [6] is on record as 100%.

Consider `Cc1nc(-c2ccc(-c3ccc(C4CCC(c5c(F)cccc5F)=N4)cc3)cc2)cs1` (stereo not drawn) [Example 22], for which the results for the chromatographic logP in data set [2] (setting [7]) and in data set [2] (setting [8]) were 3.35 and 4.68, respectively. Moreover, the results for the pest or weed control at 100 ppm in data set [3], in data set [4] and in data set [5] were 100%, 90% and 100%, respectively. Moreover, in data set [6], the “Kill rate in % after 7 d” value is on record as 100%.

As for `CCOC(=O)[C@H]1CC(c2c(F)cccc2F)=N[C@H]1c1ccc(-c2ccc(-c3noc(C(F)(F)F)n3)cc2)cc1` (racemic) [Example 8], the pest or weed control at 100 ppm in data set [1] turned out to be 100%; in data set [3], 100%; in data set [4], 95%; in data set [5] it was 100%. Moreover, in data set [2] (setting [7]), the chromatographic logP is 5.18.

`O=C(c1c(F)cccc1F)C1CC1c1ccc(Br)cc1F` (stereo not drawn) [[2-(4-bromo-2-fluorophenyl)cyclopropyl](2,6-difluorophenyl)methanone]: the chromatographic logP in data set [2] (setting [7]) amounted to 4.31.

Turning to `Cc1ccccc1C1=NC(c2ccc(Br)cc2)CC1` (stereo not drawn) [2-(4-bromophenyl)-5-(2-methylphenyl)-3,4-dihydro-2H-pyrrole], the chromatographic logP in data set [2] (setting [7]) stood at 1.82; in data set [2] (setting [8]), 4.48.

Regarding `CC1(C)OB(c2ccc(C3CCC(c4c(F)cccc4F)=N3)c(F)c2)OC1(C)C` (stereo not drawn) [II-2, 5-(2,6-difluorophenyl)-2-[2-fluoro-4-(4,4,5,5-tetramethyl-1,3,2-dioxaborolan-2-yl)phenyl]-3,4-dihydro-2H-pyrrole], the chromatographic logP in data set [2] (setting [7]) came out at 4.88.

With `COc1ccc(-c2ccc(-c3ccc(C4CCC(c5c(F)cccc5F)=N4)cc3)cc2)s1` (stereo not drawn) [Example 2, 5-(2,6-difluorophenyl)-2-[4′-(5-methoxy-2-thienyl)-1,1′-biphenyl-4-yl]-3,4-dihydro-2H-pyrrole], the pest or weed control at 100 ppm in data set [1], in data set [3] and in data set [5] was 100% in each case. Besides, in data set [2] (setting [7]), the chromatographic logP was 4.35.

As for `CC(C)Oc1ccc(-c2ccc(-c3ccc(C4CCC(c5c(F)cccc5F)=N4)cc3)cc2)s1` (stereo not drawn) [Example 3, 5-(2,6-difluorophenyl)-2-[4′-(5-isopropoxy-2-thienyl)-1,1′-biphenyl-4-yl]-3,4-dihydro-2H-pyrrole], the pest or weed control at 100 ppm in data set [1], in data set [3] and in data set [5] was 100% throughout. Also, the chromatographic logP in data set [2] (setting [7]) is 5.2.

As to `N#Cc1cnn(-c2ccc(-c3ccc(C4CCC(c5c(F)cccc5F)=N4)cc3)cc2)c1` (stereo not drawn) [Example 18], the pest or weed control at 100 ppm in data set [1] came out at 100%; in data set [3], 100%; in data set [4] it was 90%. For the same molecule, the chromatographic logP in data set [2] (setting [7]) was 3.02; in data set [2] (setting [8]), 4.03.

Take `CC(=O)NC(CCC(=O)c1ccccc1C)c1ccc(Br)cc1` (stereo not drawn) [N-[1-(4-bromophenyl)-4-(2-methylphenyl)-4-oxobutyl]acetamnide]: in data set [2] (setting [7]), the chromatographic logP was found to be 3.33.

In the case of `Cc1ccccc1C1=NC(c2ccc(-c3ccc(-c4noc(C(F)(F)F)n4)cc3)cc2)CC1` (stereo not drawn) [Example 4, 3-{4′-[5-(2-methylphenyl)-3,4-dihydro-2H-pyrrol-2-yl]-1,1′-biphenyl-4-yl}-5-(trifluoromethyl)-1,2,4-oxadiazole], the pest or weed control at 100 ppm in data set [1] amounted to 100%; in data set [3], 100%; in data set [4], 95%; in data set [5], 100%. In data set [2] (setting [7]), the chromatographic logP amounted to 3.32.

As to `CCOC(=O)[C@H]1CC(c2c(F)cccc2F)=N[C@H]1c1ccc(-c2ccc(-c3nc(C(C)(C)C)no3)cc2)cc1` (racemic) [Example 10], the pest or weed control at 100 ppm in data set [1], in data set [3] and in data set [5] was 100% each time. The chromatographic logP in data set [2] (setting [7]) worked out at 5.39.

For `CC(=O)NC(CCC(=O)c1c(F)cccc1F)c1ccc(Br)cc1F` (stereo not drawn) [N-[1-(4-bromo-2-fluorophenyl)-4-(2,6-difluorophenyl)-4-oxobutyl]acetamide], in data set [2] (setting [7]), the chromatographic logP came to 2.74.

As for `Cc1ccccc1C1=NC(c2ccc(B3OC(C)(C)C(C)(C)O3)cc2)CC1` (stereo not drawn) [II-1, 5-(2-methylphenyl)-2-[4-(4,4,5,5-tetramethyl-1,3,2-dioxaborolan-2-yl)phenyl]-3,4-dihydro-2H-pyrrole], the chromatographic logP in data set [2] (setting [7]) was found to be 2.25; in data set [2] (setting [8]), 4.98.

Turning to `Cc1ccccc1C1=NC(c2ccc(-c3ccc(-c4noc(C(C)(C)C)n4)cc3)cc2)CC1` (stereo not drawn) [Example 11], the pest or weed control at 100 ppm in data set [1] turned out to be 100%; in data set [3] it was 100%; in data set [4], 98%; in data set [5], 100%. The chromatographic logP in data set [2] (setting [7]) was 3.99.

In the case of `O=C(/C=C/c1ccc(Br)cc1F)c1c(F)cccc1F` [(2E)-3-(4-bromo-2-fluorophenyl)-1-(2,6-difluoro-phenyl)-2-propen-1-one], in data set [2] (setting [7]), the chromatographic logP was found to be 4.18.

On to `CCOC(=O)[C@H]1CC(c2c(F)cccc2F)=N[C@H]1c1ccc(-c2ccc(-c3noc(C(C)(C)C)n3)cc2)cc1` (racemic) [Example 9], for which the pest or weed control at 100 ppm in data set [1], in data set [3] and in data set [5] was 100% in each case. Further, the chromatographic logP in data set [2] (setting [7]) came to 5.29.
